In a melting point compilation (Tetko et al.; mined from patent text by program, amines drawn as free bases though some values may be those of a salt):
Residues, ends and D or L forms follow the SMILES beside them. *: point of attachment. Cbz = O=C(OCc1ccccc1)*; NHPr = CCCN*

| Compound | melting point |
| --- | --- |
| COc1cncc(-c2ccc(OC3SCC(OC(C)=O)C(OC(C)=O)C3OC(C)=O)cn2)c1 (stereo unspecified) | 155 °C |
| COc1ccc(C2CNC(=O)NC2)cc1OCCCCc1ccccc1 | 142 to 143 °C |
| Cc1nc(N2CCc3ccccc3CC2)c(C#N)c(=O)n1N(C)C(=O)OC(C)(C)C | 164 to 166 °C |
| NS(=O)(=O)c1ccc(N2CCN(CC[C@H]3OCCc4ccccc43)CC2)cc1 | 189 to 190 °C |
| O=C(C(Cl)c1ccccc1)N1CCCC1 (stereo unspecified) | 88.5 °C |
| Cc1ccc(S(=O)(=O)OCC2(C)Cc3cc(Cl)cc(O)c3O2)cc1 (stereo unspecified) | 135 to 137 °C |
| CC(Br)C(=O)c1ccc2oc(=O)[nH]c2c1 (stereo unspecified) | 191 to 193 °C |
| CCOC(=O)C1CCN(C(=O)CCCOc2ccc3nc4[nH]c(=O)[nH]c4cc3c2)CC1 | 251 to 253 °C |
| COc1ccc(N2CCOCC2)c2sc(C(=O)NCC(=O)c3sc4ccccc4c3C)nc12 | 180 °C |
| CCCn1cc2c(C3C(=O)Nc4ccc(Cl)cc43)ncnc2n1 (stereo unspecified) | 302 to 306 °C |
| Cc1cccc(-c2n[nH]cc2-c2ccc(F)c(-c3cn(CCN(C)C)cn3)c2)n1 | 130 to 131 °C |
| NC(=O)CN1C(=O)[C@H](NC(=O)c2cc3ccccc3[nH]2)[C@H](c2ccccc2)Sc2cc(Cl)ccc21 (relative stereo) | 174 to 178 °C |
| O=CNc1ccc(-c2cc[nH]n2)cc1 | 139 to 141 °C |
| Cc1ccc2ccccc2c1Cn1ccnc1 | 98 to 98.5 °C |
| CC(C)(C)OC(=O)N1CCC[C@H]1COc1cnc(Cl)c(-c2ccc(Cl)cc2)c1 | 86 to 89 °C |
| CCCCCCCNC(=O)N(C)c1ncc(-c2ccc(C[C@H](OCC)C(=O)O)cc2)s1 | 97 °C |
| COc1ccc([C@@H]2Sc3cc(Cl)ccc3N(CCN(C)C(=O)OCc3ccccc3)C(=O)[C@@H]2O)cc1 | 108 °C |
| CN1CCN(CCCCCNc2ncc3cc(-c4c(Cl)cccc4Cl)c(=O)n(C)c3n2)CC1 | 110 to 112 °C |
| c1ccc(CCC2=NOC3(CCNCC3)C2)cc1 | 106 to 109 °C |
| O=c1cc(-c2ccc3c(c2)CCCC3)[nH]c2ccccc12 | 241 to 250 °C |
| Cn1c(-c2ccccn2)cc2onc(-c3ccccc3)c2c1=O | 160 to 162 °C |
| COc1ccc2[nH]c(=O)c(=O)n(C)c2c1 | 310 °C |
| O=[N+]([O-])c1ccc2c(c1)C(c1ccccn1)=CC(C(F)(F)F)(C(F)(F)F)O2 | 105 to 107 °C |
| Cc1ccc(C(=O)c2ccccc2C2=NCCN2C(C)C)cc1 | 87 to 89 °C |
| CCC1=Cc2cc3c(cc2C(c2ccc([N+](=O)[O-])cc2)=NN1C(C)=O)OCO3 | 132 to 134 °C |
| NCCCc1csc(N=C2NCCCN2)n1 | 116 °C |

| Compound | melting point |
| --- | --- |
| O=C(Nc1ccc(Oc2ccc(N(CC(=O)N3CCN(Cc4ccc5c(c4)OCO5)CC3)C(=O)C(F)(F)F)cc2)nc1)c1ccc(Cl)c(Cl)c1 | 211 to 213 °C |
| Cc1c(F)cccc1Cc1c(-c2ccccc2)c2cc(O)cnn2c1C(=O)N1CCNCC1 | 206 to 208 °C |
| COc1ccc(Br)c2c1C(=O)C(C=O)C2 (stereo unspecified) | 76 to 78 °C |
| COc1cccc(-c2n[nH]c(-c3ccccc3COC(C)=O)n2)c1 | 83 to 87 °C |
| O=C(O)c1cccc(C(=O)c2cc(Cl)cc(C(=O)c3ccccc3O)c2O)c1O | 127 to 130 °C |
| S=c1[nH]c2cccnc2n1-c1ccc2c(c1)OCO2 | 278 °C |
| CC(C)n1nc(-c2nc(N)c(C(N)=O)nc2-c2ccccc2)ccc1=O | 217 to 220 °C |
| ON=Cc1ccc2c(c1)Sc1ccccc1C=C2 | 206 to 207 °C |
| Fc1ccc(-c2ccn(C3CCNC3)c2-c2ccncc2)cc1 (stereo unspecified) | 145 to 147 °C |
| Cc1cccc(C)c1C=NNC(=N)NCc1ccccc1 | 125 to 126 °C |
| COc1cc(-c2cc(O)n(C)n2)cc([N+](=O)[O-])c1OC | 200 to 202 °C |
| Cc1c(Cl)c(Oc2ncc(C(F)(F)F)cc2Cl)nn1C(=O)NC1CCCCC1 | 94 to 96 °C |
| N#Cc1ccc(Oc2ccc3ccc(Oc4ccc(C#N)c(C#N)c4)cc3c2)cc1C#N | 201 to 204 °C |
| CCCOc1ccc2ccccc2c1-c1c(OCCC)ccc2ccccc12 | 87 °C |
| CCCc1c(C=O)ncn1S(=O)(=O)N(C)C | 57 to 58 °C |
| CC1CCN(c2cc3nc(C(C)(C)C)sc3cc2N=C=S)CC1 | 54 to 58 °C |
| Cc1nc2cc3c(cc2s1)C1(CO3)C(=O)Nc2ccccc21 (stereo unspecified) | > 250 °C |
| CCOC(=O)c1cc(C)n(-c2cccc(Cl)c2)c1-c1ccccc1 | 93.2 to 94.6 °C |
| O=CCCNC(=O)c1cc(Br)c(Br)[nH]1 | 160 to 163 °C |
| O=S(=O)(NCC(O)(c1ccccc1)c1ccc(OCc2ccccc2)cc1)c1ccccc1 (stereo unspecified) | 148 to 149 °C |
| CC(C)(C)c1cc(N=Nc2ccc(Cl)cc2Cl)c(O)c(C(C)(C)C)c1 | 164 to 168 °C |
| CCCCCCCc1ccc(-c2ncc(C#N)cn2)cc1 | 96.3 °C |
| c1ccc(OCC2CCN(CCCOc3cccc4[nH]c5ccccc5c34)CC2)cc1 | 126 to 128 °C |
| CCOC(=O)c1cn(Cc2ccccc2)nc1OCc1ccc(OCc2nc(-c3ccco3)oc2C)c(O)c1 | 134 to 135 °C |
| COc1ccc(Cn2c(=O)ccc3cnc(Nc4ccccc4)nc32)cc1 | 215 to 216 °C |
| O=C(O)CCCNC(=O)c1ccccc1NC(=O)c1cc([N+](=O)[O-])ccc1O | 239 to 241 °C |

| Compound | melting point |
| --- | --- |
| CC(Oc1ccc(F)cc1F)c1ccnc2ncnn12 (stereo unspecified) | 96 to 97 °C |
| COc1cc(O)c(C(=O)c2ccccc2F)c(Cl)c1 | 85 to 90 °C |
| CC1=NC(=S)N=C1CCCCNC(=O)c1ccccc1 | 180 to 184 °C |
| CCOC(=O)c1ccc(C#CC(O)c2cccc3c2C(C)(C)CCS3)cc1 (stereo unspecified) | 108 °C |
| O=c1c(Cl)c(S(=O)C2CCCCC2)cnn1-c1ccccc1 (stereo unspecified) | 128 to 130 °C |
| COc1cccc2c(O)c(C(=O)NCCCCN3CCN(C(c4ccccc4)c4ccccc4)CC3)cnc12 | 209 to 212 °C |
| O=c1[nH]ncc2[nH]c(-c3ccc(OC(F)F)c(OCC4CC4)c3)cc12 | 294 to 295 °C |
| O=C(c1ccc2nonc2c1)N1CCCC1 | 97.8 to 99.3 °C |
| CCc1cc(C(C)=O)c(O)cc1OCCCC(C)(C)C#N | 55 to 56 °C |
| CCc1oc2ccccc2c1C(=O)c1ccc(OC(C)C(=O)O)cc1 (stereo unspecified) | 182 to 184 °C |
| NC(N)=Nc1nc(-c2cccc(CNC(=O)C3CCCNC3)n2)cs1 (stereo unspecified) | 227 to 228 °C |
| COCCNC(=O)c1cccc(-c2cccc3cc(COc4cc(C(F)(F)F)ccn4)sc23)c1 | 186 to 187 °C |
| CN1CCN(c2cnc3ccccc3n2)CC1 | 109 to 111 °C |
| NC(=O)c1nc(-c2ccccc2)c[nH]1 | 210 to 211 °C |
| NC(=O)c1cn(C2CCCC2)nc1N | 179 to 181 °C |
| CN(C)c1ccc(NC(=O)N(CC2CCCCC2)C[C@H]2CC[C@H](CN(CC3CCCCC3)C(=O)Nc3ccc(N(C)C)cc3)CC2)cc1 | 210 to 212 °C |
| N#Cc1ccccc1Cn1cc(C(=O)C(=O)NC2=CC(=O)OC2)c2ccccc21 | 229 to 231 °C |
| COC(=O)c1oc(C(C)(C)C)cc1NC(=O)Nc1ccc(C)cc1 | 78 to 79 °C |
| COc1ccc(OCCCN(Cc2cccc(O)c2)c2nc3ccccc3o2)cc1 | 104 °C |
| O=C(O)c1cccc(-c2nc(-c3ccc(C(F)(F)F)cc3)co2)c1 | 206 to 208 °C |
| [N-]=[N+]=C1C(=O)CCc2ccccc21 | 42.5 to 44.2 °C |
| C=Cc1ccc(OC(=O)C(Cl)(Cl)Cl)cc1 | 37 to 39 °C |
| N#CCCN1c2ccccc2Sc2ccccc21 | 158 to 160 °C |
| CC1(C)C(=O)Nc2cc3[nH]c(-c4ccccc4)nc3cc21 | 195 to 220 °C |
| CN(Cc1cc2c(=O)c(C(=O)NCc3ccc(Cl)cc3)cn(C)c2o1)CC(O)c1ccccc1 (stereo unspecified) | 118 to 121 °C |
| C#Cc1c[nH]c2nc(NC(=O)C(C)(C)C)nc(O)c12 | > 300 °C |

| Compound | melting point |
| --- | --- |
| CCNc1nc2ccccc2n2cnnc12 | 254 to 256 °C |
| N#Cc1cc([N+](=O)[O-])ccc1N1CCC(OC(=O)c2ccccc2)CC1 | 143 to 145 °C |
| Oc1ccc2nc(Br)sc2c1 | 203 to 204 °C |
| Cc1cc(C(F)(C(F)(F)F)C(F)(F)F)ccc1NC1OC(=O)c2cccc(Cl)c21 (stereo unspecified) | 229 to 231 °C |
| COc1ccc(-c2cccc(NC(C)=O)c2)cc1OC1CCCC1 | 112 to 114 °C |
| COc1ccccc1N1CCN(CCc2ccc(OC(=O)C(C)(C)C)c3ncccc23)CC1 | 115 °C |
| Brc1sc2ccccc2c1Br | 57 to 59 °C |
| S=C(Nc1ccccc1)Nc1ncccc1OCc1ccccc1 | 107 to 109 °C |
| O=C1Nc2ccccc2C12COc1ccc(Br)cc12 (stereo unspecified) | 225 to 228 °C |
| O=C1CCN(Cc2ccccc2OC(F)F)CC1C(c1ccc(F)cc1)c1ccc(F)cc1 (stereo unspecified) | 83 to 84 °C |
| CCCNC(=O)C1CCCN1C(=O)C(C)NC(=O)OCc1ccccc1 (stereo not drawn) (Cbz-Ala-Pro-NHPr; configuration not given here) | 117 to 120 °C |
| CCNC(=O)n1ccc(O)cc1=O | 272 °C |
| O=c1c2ccc(/C=C/c3ccc(O)cc3)cc2cnn1-c1ccccn1 | 272 °C |
| CCOC(=O)N1CCN(C2=Nc3cc(Br)ccc3N3CCc4cccc2c43)CC1 | 128 to 131 °C |
| C=CC(=O)N1CCc2cc(OC)c(OC)cc2C12CCC(C(=O)OCC)(C(=O)OCC)CC2 | 131 to 134 °C |
| NS(=O)(=O)c1cccc2c1C(Cl)=CC2 | 100 to 101 °C |
| CC(C)CC(=O)OC1c2ccccc2C(=O)N1c1ccc2ccc(Cl)nc2n1 (stereo unspecified) | 154 °C |
| O=C(CCl)NC(NC(=O)c1ccccc1)C(Cl)(Cl)Cl (stereo unspecified) | 211 to 213 °C |
| O=c1[nH]c2cc(Cl)ccc2c(=O)n1S(=O)(=O)c1ccc([N+](=O)[O-])cc1 | > 250 °C |
| O=C(N[C@H]1CN2CCC1CC2)C(Cc1ccccc1)c1ccccc1 (stereo partly specified) | 142 °C |
| Cn1cc2ccc(F)cc2c1 | 60 to 65 °C |
| Clc1ccc(-c2cc(C3CCN(CCc4ccccc4)CC3)n[nH]2)cc1 | 169 to 171 °C |
| COc1cc(OC)cc(C(=O)c2ccc(OC(F)F)c(OC(F)F)c2)c1 | 60 to 62 °C |
